Data set [1] is described as follows: Solubility of the compound in DMSO up to 900 uM. In kind it is physicochemical.
The nature of data set [2]: Solubility of the compound in DMSO at >[…] uM. The format is physicochemical.

As to `CO[C@@H]1O[C@H](CO)[C@H](O)[C@H](OCc2cc(-c3ccccc3F)nc(N)n2)[C@H]1O`, the solubility result is given as “Soluble” in data set [1] and “Insoluble” in data set [2].
In the case of `CO[C@@H]1O[C@H](CO)[C@H](O)[C@H](OCc2cc(-c3cccc(-c4ccccc4)c3)nc(N)n2)[C@H]1O`, the solubility entry in data set [1] is on record as “Soluble”; in data set [2], “Insoluble”.
For the compound `CO[C@@H]1O[C@H](CO)[C@H](O)[C@H](OCc2cc(-c3cccc(Cl)c3)nc(N)n2)[C@H]1O`, the solubility result in data set [1] was “Soluble”; in data set [2], “Insoluble”.
In the case of `CO[C@@H]1O[C@H](CO)[C@H](O)[C@H](OCc2cc(-c3ccc(C)cc3)nc(N)n2)[C@H]1O`, the solubility entry in data set [1] was “Soluble”; in data set [2], “Insoluble”.
With `CO[C@@H]1O[C@H](CO)[C@H](O)[C@H](OCc2cc(-c3ccc(F)cc3)nc(N)n2)[C@H]1O`, the solubility entry in data set [1] is “Soluble”; in data set [2] it was “Insoluble”.
On the same counts, the results for `CO[C@@H]1O[C@H](CO)[C@H](O)[C@H](OCc2cc(-c3ccc(Br)cc3)nc(N)n2)[C@H]1O` are “Soluble” and “Insoluble”.
On the same counts, the results for `CO[C@@H]1O[C@H](CO)[C@H](O)[C@H](OCc2cc(-c3cccc(C)c3)nc(N)n2)[C@H]1O` are “Soluble” and “Insoluble”.
Turning to `CO[C@@H]1O[C@H](CO)[C@H](O)[C@H](OCc2cc(-c3cccc4ccccc34)nc(N)n2)[C@H]1O`, the solubility entry in data set [1] is given as “Soluble”; in data set [2] it was “Insoluble”.
On the same counts, the results for `CO[C@@H]1O[C@H](CO)[C@H](O)[C@H](OCc2cc(-c3ccc4ccccc4c3)nc(N)n2)[C@H]1O` are “Soluble” and “Insoluble”.
On to `CO[C@@H]1O[C@H](CO)[C@H](O)[C@H](OCc2cc(-c3ccccc3)nc(N)n2)[C@H]1O`, for which the solubility result in data set [1] was “Soluble”; in data set [2] it was “Insoluble”.
Turning to `CO[C@@H]1O[C@H](CO)[C@H](O)[C@H](OCc2cc(-c3ccc(C(C)(C)C)cc3)nc(N)n2)[C@H]1O`, the solubility entry was “Soluble” in data set [1] and “Insoluble” in data set [2].
`CO[C@@H]1O[C@H](CO)[C@H](O)[C@H](OCc2cc(-c3ccc(-c4ccccc4)cc3)nc(N)n2)[C@H]1O`: the solubility entry in data set [1] was “Soluble”; in data set [2] it was “Insoluble”.
On to `CO[C@@H]1O[C@H](CO)[C@H](O)[C@H](OCc2cc(-c3ccc(Cl)cc3)nc(N)n2)[C@H]1O`, for which the solubility result in data set [1] is on record as “Soluble”; in data set [2], “Insoluble”.
Turning to `CO[C@@H]1O[C@H](CO)[C@H](O)[C@H](OCc2cc(-c3cccc(F)c3)nc(N)n2)[C@H]1O`, the solubility result in data set [1] was “Soluble”; in data set [2], “Insoluble”.
